For the assay, the target named is Neuraminidase (Influenza A virus (A/Puerto Rico/8/1934(H1N1)), UniProt P03468).
Sequence of Neuraminidase (Influenza A virus (A/Puerto Rico/8/1934(H1N1)), UniProt P03468) (P03468 whole entry): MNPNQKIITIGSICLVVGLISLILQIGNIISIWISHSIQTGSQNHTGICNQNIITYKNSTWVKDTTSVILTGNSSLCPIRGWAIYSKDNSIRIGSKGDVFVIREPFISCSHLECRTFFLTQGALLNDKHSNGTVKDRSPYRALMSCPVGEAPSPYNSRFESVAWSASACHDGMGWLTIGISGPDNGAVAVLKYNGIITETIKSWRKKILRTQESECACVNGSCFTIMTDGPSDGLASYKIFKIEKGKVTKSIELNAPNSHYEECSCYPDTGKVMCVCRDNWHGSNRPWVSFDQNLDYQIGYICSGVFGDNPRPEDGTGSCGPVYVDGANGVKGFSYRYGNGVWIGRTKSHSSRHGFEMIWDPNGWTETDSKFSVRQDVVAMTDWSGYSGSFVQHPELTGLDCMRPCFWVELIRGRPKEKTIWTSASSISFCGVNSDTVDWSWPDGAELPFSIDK

Description: inhibition of Influenza A Sialidase

For `CC(=O)NC1C(N)C=C(C(=O)O)OC1[C@H](O)[C@H](O)CO` (stereo partly specified), the affinity, expressed as Ki, was 40 nM.

Broadly, the Ki is a measure of affinity in units of concentration, obtained from inhibition or displacement. The low end stands for tighter binding, the high end for weaker binding.

(Values after ChEMBL document CHEMBL1127812, “Molecular modeling studies on ligand binding to sialidase from influenza virus and the mechanism of catalysis” (J Med Chem, 1994).)
